Measurements reported in ChEMBL document CHEMBL1201862, “PubChem BioAssay data set” (2004).
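Cultured in 96-well plates, cells were exposed to test compound for 48 hours across five concentrations. GI50 = concentration required for 50% inhibition of growth.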 The source made the active and inactive calls. No stated cut-off is given here; in the data, active = GI50 up to about 1.1 µM and inactive = higher.

What was measured:
Experiment in all cases: growth of human tumour cells (NCI), 48 h
SNB-78 = system: SNB-78
M19-MEL = system: M19-MEL
DLD-1 = system: DLD-1
HOP-18 = system: HOP-18
XF498 = system: XF498
DMS-114 = system: DMS-114
DMS-273 = system: DMS-273
KM-20L2 = system: KM-20L2
RXF 631 = system: RXF 631

O=C1C(O)=C(CC=C(Cl)Cl)C(=O)c2ccccc21
GI50 (SNB-78): 21.9 µM (inactive)
GI50 (M19-MEL): 7.64 µM (inactive)
GI50 (DLD-1): 1.65 µM (inactive)
GI50 (HOP-18): 25.4 µM (inactive)
GI50 (XF498): 32.3 µM (inactive)
GI50 (DMS-114): 18 µM (inactive)
GI50 (DMS-273): 2.04 µM (inactive)
GI50 (KM-20L2): 9.42 µM (inactive)

COC(=O)C1=C(C[S+]([O-])c2ccc([N+](=O)[O-])cc2[N+](=O)[O-])ON(C)C1c1ccccc1 (stereo not given)
GI50 (SNB-78): 33.9 µM (inactive)
GI50 (RXF 631): 99.5 µM (inactive)
GI50 (M19-MEL): 34.3 µM (inactive)
GI50 (DLD-1): 33.8 µM (inactive)
GI50 (HOP-18): 22.6 µM (inactive)
GI50 (XF498): 37.3 µM (inactive)
GI50 (DMS-114): 27.7 µM (inactive)
GI50 (DMS-273): 36.2 µM (inactive)
GI50 (KM-20L2): 27.8 µM (inactive)

COc1cc2c(cc1OC)C(Cc1cc(Br)c(OC)c(OC)c1)=[N+](C)CC2
GI50 (SNB-78): 92.5 µM (inactive)
GI50 (M19-MEL): 56.1 µM (inactive)
GI50 (DLD-1): 80 µM (inactive)
GI50 (HOP-18): > 100 µM (inactive)
GI50 (DMS-114): 2.52 µM (inactive)
GI50 (KM-20L2): 39.2 µM (inactive)

Cc1ccc(NC(=O)c2cc3cc(/N=N/c4ccccc4C(=O)O)ccc3oc2=O)cc1
GI50 (DLD-1): 41 µM (inactive)
GI50 (HOP-18): 32 µM (inactive)
GI50 (XF498): 33 µM (inactive)
GI50 (DMS-114): 24 µM (inactive)
GI50 (DMS-273): 37.4 µM (inactive)
GI50 (KM-20L2): 36 µM (inactive)

CCCCCCCCCCCCCCCC(=O)OCC1OC(n2cc(F)c(=O)[nH]c2=O)C(N)C(O)C1O (stereo not given)
GI50 (M19-MEL): 18.7 µM (inactive)
GI50 (DLD-1): 20.6 µM (inactive)
GI50 (HOP-18): 16.3 µM (inactive)
GI50 (XF498): 18.9 µM (inactive)
GI50 (DMS-114): 18.8 µM (inactive)
GI50 (KM-20L2): 17.2 µM (inactive)

O=c1[nH]c(-c2ccccc2)nc2ccc(Cl)cc12
GI50 (SNB-78): 93.8 µM (inactive)
GI50 (M19-MEL): 54.3 µM (inactive)
GI50 (DMS-114): > 100 µM (inactive)
GI50 (DMS-273): 45.9 µM (inactive)
GI50 (KM-20L2): 29.2 µM (inactive)

Cc1nc(N2N=C(c3ccc(Cl)cc3)CCC2=O)sc1[N+](=O)[O-]
GI50 (SNB-78): > 100 µM (inactive)
GI50 (M19-MEL): > 100 µM (inactive)
GI50 (DLD-1): > 100 µM (inactive)
GI50 (HOP-18): > 100 µM (inactive)
GI50 (XF498): > 100 µM (inactive)
GI50 (DMS-114): > 100 µM (inactive)
GI50 (DMS-273): > 100 µM (inactive)
GI50 (KM-20L2): > 100 µM (inactive)

O=C(NNC(=O)/C(=C/c1cccc([N+](=O)[O-])c1)NC(=O)c1ccccc1)Nc1ccc(Cl)cc1
GI50 (SNB-78): 24 µM (inactive)
GI50 (RXF 631): 10.2 µM (inactive)
GI50 (M19-MEL): 15.2 µM (inactive)
GI50 (DLD-1): 12.6 µM (inactive)
GI50 (HOP-18): 15.6 µM (inactive)
GI50 (XF498): 9.53 µM (inactive)
GI50 (DMS-114): 11.5 µM (inactive)
GI50 (DMS-273): 12.9 µM (inactive)
GI50 (KM-20L2): 17.1 µM (inactive)

Brc1ccccc1C1SCc2nc3ccccc3n21 (stereo not given)
GI50 (SNB-78): 26.4 µM (inactive)
GI50 (M19-MEL): 15 µM (inactive)
GI50 (DLD-1): 12.7 µM (inactive)
GI50 (HOP-18): < 0.01 µM (active)
GI50 (DMS-114): 16 µM (inactive)

COCCCNC(=O)C1C(=O)N(CCCOC)C(=O)/C1=N\N (stereo not given)
GI50 (SNB-78): > 100 µM (inactive)
GI50 (RXF 631): > 100 µM (inactive)
GI50 (M19-MEL): > 100 µM (inactive)
GI50 (DLD-1): > 100 µM (inactive)
GI50 (HOP-18): > 100 µM (inactive)
GI50 (DMS-114): > 100 µM (inactive)
GI50 (DMS-273): > 100 µM (inactive)
GI50 (KM-20L2): > 100 µM (inactive)

COc1cc(-c2nccc3cc(OC)c(OC)cc23)ccc1O
GI50 (SNB-78): > 100 µM (inactive)
GI50 (RXF 631): 62.4 µM (inactive)
GI50 (M19-MEL): > 100 µM (inactive)
GI50 (DLD-1): 76.4 µM (inactive)
GI50 (HOP-18): 21.1 µM (inactive)
GI50 (XF498): 25.4 µM (inactive)
GI50 (DMS-273): 43.5 µM (inactive)
GI50 (KM-20L2): 33.7 µM (inactive)

O=C(Nc1cccc(C(F)(F)F)c1)C(=O)C1NC(=S)NC1=O (stereo not given)
GI50 (SNB-78): > 100 µM (inactive)
GI50 (M19-MEL): > 100 µM (inactive)
GI50 (DLD-1): > 100 µM (inactive)
GI50 (HOP-18): > 100 µM (inactive)
GI50 (DMS-114): > 100 µM (inactive)
GI50 (DMS-273): > 100 µM (inactive)
GI50 (KM-20L2): > 100 µM (inactive)

CCCCCCCCC(=O)N(C)C1C2CN3CCC(O2)C13 (stereo not given)
GI50 (SNB-78): > 100 µM (inactive)
GI50 (M19-MEL): > 100 µM (inactive)
GI50 (DLD-1): > 100 µM (inactive)
GI50 (HOP-18): > 100 µM (inactive)
GI50 (DMS-114): > 100 µM (inactive)
GI50 (DMS-273): > 100 µM (inactive)
GI50 (KM-20L2): > 100 µM (inactive)

N#Cc1ccccc1/C=N/O
GI50 (SNB-78): > 100 µM (inactive)
GI50 (M19-MEL): > 100 µM (inactive)
GI50 (DLD-1): > 93.8 µM (inactive)
GI50 (HOP-18): > 100 µM (inactive)
GI50 (XF498): > 100 µM (inactive)
GI50 (DMS-114): > 59.4 µM (inactive)
GI50 (DMS-273): > 41.4 µM (inactive)
GI50 (KM-20L2): > 100 µM (inactive)

O=C(OCc1ccccc1C1CSCSC1)c1cc(C(=O)OCc2ccccc2C2CSCSC2)c(C(=O)OCc2ccccc2C2CSCSC2)cc1C(=O)OCc1ccccc1C1CSCSC1
GI50 (SNB-78): 78.9 µM (inactive)
GI50 (M19-MEL): > 100 µM (inactive)
GI50 (DLD-1): > 100 µM (inactive)
GI50 (HOP-18): > 100 µM (inactive)
GI50 (DMS-114): > 100 µM (inactive)
GI50 (DMS-273): > 100 µM (inactive)
GI50 (KM-20L2): > 100 µM (inactive)

NCCCNCc1c2ccccc2c(CNCCCN)c2ccccc12
GI50 (SNB-78): 22.5 µM (inactive)
GI50 (M19-MEL): 14.7 µM (inactive)
GI50 (DLD-1): 34.6 µM (inactive)
GI50 (HOP-18): 25.1 µM (inactive)
GI50 (DMS-114): 14.3 µM (inactive)
GI50 (KM-20L2): 17.9 µM (inactive)

CC(O)C(C(=O)O)N(CC1(O)OCC(O)C(O)C1O)N=O (stereo not given)
GI50 (SNB-78): > 100 µM (inactive)
GI50 (RXF 631): > 100 µM (inactive)
GI50 (M19-MEL): > 100 µM (inactive)
GI50 (DLD-1): > 100 µM (inactive)
GI50 (XF498): > 100 µM (inactive)
GI50 (DMS-114): > 100 µM (inactive)
GI50 (DMS-273): > 100 µM (inactive)
GI50 (KM-20L2): > 100 µM (inactive)

OCC(O)C(O)C(O)C(O)c1nnn[nH]1 (stereo not given)
GI50 (SNB-78): > 100 µM (inactive)
GI50 (M19-MEL): > 100 µM (inactive)
GI50 (DLD-1): > 100 µM (inactive)
GI50 (XF498): > 100 µM (inactive)
GI50 (DMS-114): > 100 µM (inactive)
GI50 (DMS-273): > 100 µM (inactive)

COC(=O)c1c/c(=N\NC(=O)CC(=O)Nc2ccccc2Cl)c2ccccc2o1
GI50 (SNB-78): > 100 µM (inactive)
GI50 (RXF 631): > 100 µM (inactive)
GI50 (DLD-1): > 100 µM (inactive)
GI50 (XF498): > 100 µM (inactive)
GI50 (DMS-114): > 100 µM (inactive)
GI50 (DMS-273): > 100 µM (inactive)
GI50 (KM-20L2): > 100 µM (inactive)

[O-][Cl+3]([O-])([O-])[O-].c1ccc(C[P+]2(c3ccccc3)CCCCC2)cc1
GI50 (SNB-78): > 100 µM (inactive)
GI50 (M19-MEL): 28.8 µM (inactive)
GI50 (DLD-1): > 100 µM (inactive)
GI50 (HOP-18): > 100 µM (inactive)
GI50 (XF498): 33.6 µM (inactive)
GI50 (DMS-114): 48.5 µM (inactive)
GI50 (DMS-273): 79.3 µM (inactive)
GI50 (KM-20L2): > 100 µM (inactive)

COc1cc(Br)c(/C=N\c2cccc3ccc(OS(=O)(=O)c4ccc([N+](=O)[O-])cc4)cc23)cc1OC
GI50 (SNB-78): 34.2 µM (inactive)
GI50 (M19-MEL): > 100 µM (inactive)
GI50 (DLD-1): > 100 µM (inactive)
GI50 (DMS-114): > 100 µM (inactive)

C/C(=N\Nc1ccccc1)c1sc(-c2nc(C)c(/C(C)=N/Nc3ccccc3)s2)nc1C
GI50 (SNB-78): > 64.7 µM (inactive)
GI50 (M19-MEL): 17.2 µM (inactive)
GI50 (DLD-1): 22.1 µM (inactive)
GI50 (HOP-18): > 45 µM (inactive)
GI50 (XF498): 45.6 µM (inactive)
GI50 (DMS-114): 11.5 µM (inactive)
GI50 (DMS-273): 8.93 µM (inactive)
GI50 (KM-20L2): 6.46 µM (inactive)

COc1cc(/C=C2\CCC(CN(C)C)C2=O)ccc1OC(=O)c1ccccc1 (stereo not given)
GI50 (SNB-78): 19.2 µM (inactive)
GI50 (RXF 631): 11.2 µM (inactive)
GI50 (M19-MEL): 8.57 µM (inactive)
GI50 (DLD-1): 4.67 µM (inactive)
GI50 (HOP-18): 16.9 µM (inactive)
GI50 (XF498): 20.3 µM (inactive)
GI50 (DMS-114): 15.8 µM (inactive)
GI50 (DMS-273): 11.1 µM (inactive)
GI50 (KM-20L2): 15.9 µM (inactive)

O=C(CSc1nnc(-c2ccc(/N=C\c3ccc(Cl)cc3)cc2)o1)Nc1ccc(Cl)cc1Cl
GI50 (SNB-78): > 100 µM (inactive)
GI50 (M19-MEL): 31.7 µM (inactive)
GI50 (DLD-1): 27.3 µM (inactive)
GI50 (HOP-18): 11.6 µM (inactive)
GI50 (XF498): 17.7 µM (inactive)
GI50 (DMS-273): 34.3 µM (inactive)
GI50 (KM-20L2): 37.2 µM (inactive)
